Measurements: patent US5424205A, “Amyloidin protease and uses thereof” (Athena Neurosciences, Inc., priority 1993, dated 1995)
Like-named read-outs stand apart in the source and are kept apart here. Starred links: 1 amine or outer side, 2 acyl side, 3 side chain; linkers in the order of their positions; H or OH if unused. Residues, ends and D or L forms follow the SMILES beside them. *: point of attachment. pNA = O=[N+]([O-])c1ccc(N*)cc1; Suc = O=C(CCC(=O)[*:2])[*:1]; MeOSuc = COC(=O)CCC(=O)*; Cbz = O=C(OCc1ccccc1)*; Boc = CC(C)(C)OC(=O)*

Columns and labels:
amyloidin [1] = target: T1, amyloidin (Homo sapiens, UniProt P52888); test: Inhibition of amyloidin by various inhibitors (APP592-601 peptide cleavage); format: biochemical
T1 construct: from tissue; a purification from blood is also described
T1 sequence (P52888 whole entry): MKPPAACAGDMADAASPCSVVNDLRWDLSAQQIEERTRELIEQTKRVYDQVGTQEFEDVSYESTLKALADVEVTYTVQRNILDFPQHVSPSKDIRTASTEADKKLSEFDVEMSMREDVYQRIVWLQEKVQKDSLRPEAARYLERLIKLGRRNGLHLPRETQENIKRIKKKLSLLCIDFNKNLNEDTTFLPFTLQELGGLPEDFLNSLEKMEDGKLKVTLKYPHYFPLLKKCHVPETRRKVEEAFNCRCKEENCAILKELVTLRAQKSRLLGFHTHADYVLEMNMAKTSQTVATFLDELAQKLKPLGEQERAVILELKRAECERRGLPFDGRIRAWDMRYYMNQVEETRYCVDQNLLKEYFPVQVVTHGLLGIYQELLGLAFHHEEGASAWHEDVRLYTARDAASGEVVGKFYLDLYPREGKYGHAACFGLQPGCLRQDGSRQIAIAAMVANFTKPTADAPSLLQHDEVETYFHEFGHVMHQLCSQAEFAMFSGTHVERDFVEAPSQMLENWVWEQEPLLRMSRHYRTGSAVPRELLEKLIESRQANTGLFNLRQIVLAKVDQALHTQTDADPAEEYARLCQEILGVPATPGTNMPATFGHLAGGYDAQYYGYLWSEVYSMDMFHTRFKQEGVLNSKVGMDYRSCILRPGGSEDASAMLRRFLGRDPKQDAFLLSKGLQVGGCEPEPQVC

amyloidin [2] = target: T1, amyloidin; test: Cleavage of short peptide para-nitroanilide substrates by amyloidin (A405); format: biochemical; settings: pH 7.5; up to 2 hours
amyloidin [3] = target: T1, amyloidin; test: Cleavage of APP592-601 and its analogs by amyloidin (subsite requirements); format: biochemical; settings: pH 7.5, CaCl2, 37° C., 60 min; RP-HPLC
Method: Routinely, 25 ul of enzyme solution were mixed with 10 ul of 1M Tris, pH 7.5, 5 ul 10 mM CaCl2, and 10 ul of a 2 mg/ml Stock solution of APP592-601 in water, or 20 mM Tris, pH 7.5, 0.15M NaCl, in 1.5 ml polypropylene microfuge tubes. The reaction mixtures were incubated for 60 min at 37° C. in a water bath, then quenched with 450 ul ice-cold ethanol, and incubated on ice for a further 20 min. They were centrifuged at 15,000×g for 10 min, and the supernatants transferred to new polypropylene tubes and dried under vacuum. The residue was dissolved in 0.5 ml water, centrifuged at 15,000×g for 5 min, and 200 ul of the supernatant injected onto a 0.46×30 cm Vydac C18 column equilibrated with 0.1% trifluoroacetic acid in water, at 1 ml/min. The column was immediately eluted with a linear gradient to 40% acetronitrile in 0.1% trifluoroacetic acid in water, over 20 minutes. The elution was monitored at 220 nm, and peaks were individually collected, hydrolyzed in 6N HCl at […] for 2 hr, then subjected to quantitative amino-acid analysis in an Applied Biosystems amino-acid analyzer. Once identified, times of elution were used to identify cleavage patterns.
In order to test the subsite requirements of amyloidin in the APP592-601 cleavage assay, analogs of this peptide substrate were synthesized.
Following synthesis and purification, the peptides were then incubated with amyloidin under conditions identical to those developed with APP592-601. The underlined residues designated changes from the native peptide sequence while the arrows indicate peptide cleavage sites. [drawing 5]

brain protease = settings: TLC; 125I-labelled peptide; Abraham et al; cited from earlier work
amyloidin [4] = target: T1, amyloidin; test: Cleavage of full-length APP from baculovirus cells by amyloidin; format: biochemical; settings: certain preliminary conditions
[5] = target: APP592-601 (N-acetyl-Ser-Glu-Val-Lys-Met-Asp-Ala-Glu-Phe-Arg)
[6] = target: human amyloidin protease (human)
[7] = target: soybean trypsin inhibitor (Sigma Chemicals) immobilized on CH-Sepharose; test: affinity column of immobilized soybean trypsin inhibitor; activity measured in the flow-through

c1cnc2c(c1)ccc1cccnc12 [1,10-phen., 1,10phenanthroline]
remaining activity at 100 µM (amyloidin [1]; assay conc. 0.1 mM, stock in DMSO, 30 min pre-incubation, room temperature, read-out: % Control Activity): 75%
inhibitory effect on amyloidin (amyloidin [1]; in words): only weakly inhibitory

CC(=O)N[C@@H](C)C(=O)N[C@@H](CC(=O)O)C(=O)Nc1ccc([N+](=O)[O-])cc1 [Ac-AD-pNA, Acetylalanyl-aspartyl-] (Ac-Ala-Asp-pNA)
cleavage of p-NA substrate by amyloidin (increase in A405) (amyloidin [2]): 0

CSCC[C@H](NC(=O)[C@H](CCCCN)NC(=O)[C@@H](NC(=O)[C@H](CCC(=O)O)NC(C)=O)C(C)C)C(=O)Nc1ccc([N+](=O)[O-])cc1 [Ac-EVKM-PNA, acetylglutamyl-valyl-lysyl-methinyl-pNA] (Ac-EVKM-pNA)
cleavage of p-NA substrate by amyloidin (increase in A405) (amyloidin [2]): 0

CSCC[C@@H](C=O)NC(=O)[C@H](CC(C)C)NC(=O)[C@H](CC(C)C)NC(C)=O [Calp. Inh. II] (Ac-Leu-Leu-Met-aldehyde)
remaining activity at 50 µg/mL (amyloidin [1]; assay conc. 50 ug/ml, 30 min pre-incubation, room temperature, read-out: % Control Activity): 130%
inhibitory effect on amyloidin (amyloidin [1]; in words): no inhibitory effect

CC(C)C[C@H](NC(=O)[C@H]1O[C@@H]1C(=O)O)C(=O)NCCCCN=C(N)N [E-64]
remaining activity at 1 µg/mL (amyloidin [1]; assay conc. 1 ug/ml, 30 min pre-incubation, room temperature, read-out: % Control Activity): 119%
inhibitory effect on amyloidin (amyloidin [1]; in words): no inhibitory effect

O=C(O)CN(CCN(CC(=O)O)CC(=O)O)CC(=O)O [EDTA, ethylenediaminetetraacetic acid]
cleavage of APP592-601 by amyloidin (amyloidin [1]): no detectable cleavage
inhibitory effect on amyloidin (amyloidin [1]): strongly inhibited

CSCC[C@H](NC(=O)[C@H](CCC(N)=O)NC(=O)[C@@H](NC(=O)[C@H](CCC(=O)O)NC(=O)[C@H](CO)NC(C)=O)C(C)C)C(=O)N[C@@H](CC(=O)O)C(=O)N[C@@H](C)C(=O)N[C@@H](CCC(=O)O)C(=O)N[C@@H](Cc1ccccc1)C(=O)N[C@@H](CCCNC(=N)N)C(N)=O [Gln595 analog] (Ac-SEVQMDAEFR-NH2)
site of cleavage by amyloidin (amyloidin [3]): all the cleavage by amyloidin was at the Met-Asp bond

COC(=O)CCC(=O)N[C@@H](C)C(=O)N[C@@H](C)C(=O)N1CCC[C@H]1C(=O)N[C@H](C(=O)Nc1ccc([N+](=O)[O-])cc1)C(C)C [MeS-AAPV-pNA, Methoxysuccinylalanyl-alanyl-prolyl-valyl-] (MeOSuc-AAPV-pNA)
cleavage of p-NA substrate by amyloidin (increase in A405) (amyloidin [2]): 0

O=S(=O)(F)Cc1ccccc1 [PMSF, phenylmethylsulfonyl fluoride]
% Control Activity (amyloidin [1]): 69%

C[C@H](NC(=O)CCC(=O)O)C(=O)N[C@@H](C)C(=O)N1CCC[C@H]1C(=O)N[C@@H](Cc1ccccc1)C(=O)Nc1ccc([N+](=O)[O-])cc1 [Suc-AAPF-pNA, Succinylalanyl-alanyl-prolyl-phenylalanyl-] (Suc-AAPF-pNA)
cleavage of p-NA substrate by amyloidin (increase in A405) (amyloidin [2]): 0

CSCC[C@H](NC(=O)[C@@H]1CCCN1C(=O)[C@H](C)NC(=O)[C@H](C)NC(=O)CCC(=O)O)C(=O)Nc1ccc([N+](=O)[O-])cc1 [Suc-AAPM-pNA, Suc-Ala-Ala-Pro-Met-pNA] (Suc-AAPM-pNA)
cleavage of p-NA substrate by amyloidin (increase in A405) (amyloidin [2]): 0

C[C@H](NC(=O)OCc1ccccc1)C(=O)N[C@@H](C)C(=O)Nc1ccc([N+](=O)[O-])cc1 [Z-AA-pNA, benzyloxycarbonylalanyl-alanyl-] (Cbz-Ala-Ala-pNA)
cleavage of p-NA substrate by amyloidin (increase in A405) (amyloidin [2]): 0

N=C(N)NCCC[C@H](NC(=O)OCc1ccccc1)C(=O)N[C@@H](CCCCN)C(=O)Nc1ccc([N+](=O)[O-])cc1 [Z-RK-pNA, benzyloxycarbonylarginyl-lysyl-] (Cbz-Arg-Lys-pNA)
cleavage of p-NA substrate by amyloidin (increase in A405) (amyloidin [2]): 0

N=C(N)NCCC[C@H](NC(=O)OCc1ccccc1)C(=O)N[C@@H](CCCNC(=N)N)C(=O)Nc1ccc([N+](=O)[O-])cc1 [Z-RR-pNA, benzyloxycarbonyl arginylarginyl-] (Cbz-Arg-Arg-pNA)
cleavage of p-NA substrate by amyloidin (increase in A405) (amyloidin [2]): 0

CC(C)C[C@H](NC(=O)[C@@H](NC(=O)N[C@@H](Cc1ccccc1)C(=O)O)[C@@H]1CCN=C(N)N1)C(=O)N[C@H](C=O)Cc1ccccc1 [chymostatin]
remaining activity at 25 µg/mL (amyloidin [1]; read-out: % Control Activity): 77%

CC(C)C[C@H](NP(=O)(O)O[C@@H]1O[C@@H](C)[C@H](O)[C@@H](O)[C@H]1O)C(=O)N[C@@H](Cc1c[nH]c2ccccc12)C(=O)O [phosphoramidon]
remaining activity at 100 µg/mL (amyloidin [1]; assay conc. 0.1 mg/ml, 30 min pre-incubation, room temperature, read-out: % Control Activity): 79%
inhibitory effect on amyloidin (amyloidin [1]; in words): only weakly inhibitory

CC(=O)N[C@@H](CO)C(=O)N[C@@H](CCC(=O)O)C(=O)N[C@H](C(=O)N[C@@H](CCCCN)C(=O)N[C@@H](C)C(=O)N[C@@H](CC(=O)O)C(=O)N[C@@H](C)C(=O)N[C@@H](CCC(=O)O)C(=O)N[C@@H](Cc1ccccc1)C(=O)N[C@@H](CCCNC(=N)N)C(N)=O)C(C)C [replacement of Met596 by Ala] (Ac-SEVKADAEFR-NH2)
site of cleavage by amyloidin (amyloidin [3]): loss of cleavage at this site, but cleavage shifted to the Lys595-Ala596 bond

Butyloxycarbonylalanyl-alanyl-aspartyl- (Boc-Ala-Ala-Asp-pNA; SMILES C[C@H](NC(=O)OC(C)(C)C)C(=O)N[C@@H](C)C(=O)N[C@@H](CC(=O)O)C(=O)Nc1ccc([N+](=O)[O-])cc1) [Boc-AAd-Pna]
cleavage of p-NA substrate by amyloidin (increase in A405) (amyloidin [2]): 0

HSEVKMDAEF
sites of cleavage by brain protease (brain protease): primarily at three sites, between the Lys-Met, Met-Asp, and Asp-Ala, with some cleavage obtained at His-Ser

aprotinin
% Control Activity (amyloidin [1]): 102%
inhibitory effect on amyloidin (amyloidin [1]): nor did aprotinin

full-length protein (APP): full-length protein (APP) produced by baculovirus cells transformed with the gene encoding APP
cleavage of full-length APP by amyloidin (amyloidin [4]): did not cleave

human amyloidin protease (enzyme)
Specific Activity (area/min/mg), DAEFR area by RP-HPLC [5]: 2080 area/min/mg
increase in absorbance at 405 nm (Suc-AAPM-pNA): 0
increase in absorbance at 405 nm (Z-AA-pNA): 0
increase in absorbance at 405 nm (Suc-AAPF-pNA): 0
increase in absorbance at 405 nm (Ac-AD-pNA): 0
increase in absorbance at 405 nm (Boc-AAd-Pna): 0
increase in absorbance at 405 nm (Z-RR-pNA): 0
increase in absorbance at 405 nm (MeS-AAPV-pNA): 0
increase in absorbance at 405 nm (Z-RK-pNA): 0
increase in absorbance at 405 nm (Ac-EVKM-PNA): 0

α1-PI: general plasma serine proteinase inhibitor
% Control Activity (amyloidin [1]; assay conc. 30 ug/ml, 30 min pre-incubation, room temperature): 98%
inhibitory effect on amyloidin (amyloidin [1]; in words): Neither α-1-proteinase inhibitor or α-1-antichymotrypsin, two general plasma serine proteinase inhibitors, had any inhibitory effect

α1-antichymotrypsin
% Control Activity (cleavage of APP592-601) (% control activity) [6]: 121

α1-proteinase inhibitor
% Control Activity (cleavage of APP592-601) (% control activity) [6]: 98

B1: rat mast cell protease I (RMCP I) (protein)
chain: IIGGVESRPHSRPYMAHLEITTERGYKATCGGFLVTRQFVMTAAHCKGRETTVTLGVHDVSKTESTQQKIKVEKQIVHPNYNFYSNLHDIMLLKLQKKAKVTPAVDVIPLPQPSDFLKPGKMCRAAGWGQTGVTKPTSNTLREVKQRIMDKEACKNYFHYNYNFQVCVGSPRKIRSAYKGDSGGPLVCAGVAHGIVSYGRGDAKPPAVFTRISPYVPWINKVIKGKDLTSLSLHESESPS
percent of Suc-Ala-Ala-Pro-Phe-pNA hydrolysing activity bound to the matrix [7]: 95% of this activity had bound to the matrix
